Assay results reported in ChEMBL document CHEMBL1132839, “Substituted 3-(2-benzoxazyl)-benzimidazol-2-(1H)-ones: a new class of GABA(A) brain receptor ligands” (Bioorg Med Chem Lett, 2000).

target: GABA-A receptor; anion channel; experiment: Inhibition of GABA-A benzodiazepine receptor; assay type: protein-complex assay

Row | IC50 [nM] | SMILES
1 | 140 | O=C1NC2CCCCCC2N1c1nc2cc(Cl)ccc2o1 (stereo not given)

target: GABA-A receptor; anion channel; experiment: Binding affinity against GABA-A benzodiazepine receptor; assay type: protein-complex assay

Row | Ki [nM] | SMILES
2 | 162 | Oc1nc2ccccc2n1-c1nc2cc(F)ccc2o1
3 | 239 | COc1ccc2nc(-n3c(O)nc4c3CCCC4)oc2c1
4 | 21 | Oc1nc2c(n1-c1nc3ccc(F)c(F)c3o1)CCCC2
5 | 32 | Oc1nc2cc(F)ccc2n1-c1nc2ccccc2o1
6 | 25 | Oc1nc2cc(F)ccc2n1-c1nc2ccc(F)cc2o1
7 | 58 | Oc1nc2ccc(F)cc2n1-c1nc2ccccc2o1
8 | 26 | Oc1nc2c(n1-c1nc3cc(F)ccc3o1)CCCC2
9 | 89 | Oc1nc2ccccc2n1-c1nc2ccc(F)cc2o1
10 | 47 | Oc1nc2c(n1-c1nc3ccc(F)cc3o1)CCCC2
11 | 5 | O=C1NC2CCCCCC2N1c1nc2ccc(F)cc2o1 (stereo not given)
12 | 303 | Cc1ccc2nc(-n3c(O)nc4ccccc43)oc2c1
13 | 81 | COc1ccc2oc(-n3c(O)nc4c3CCCC4)nc2c1
14 | 56 | Oc1nc2c(n1-c1nc3ccccc3o1)CCCC2
15 | 52 | Oc1nc2c(n1-c1nc3cccc(F)c3o1)CCCC2
16 | 15 | Oc1nc2ccc(F)cc2n1-c1nc2cccc(F)c2o1

Continued, compound first:

Row | SMILES | Ki [nM]
17 | O=C1NC2CCCCCC2N1c1nc2ncccc2o1 (stereo not given) | 137
18 | Oc1nc2ccccc2n1-c1nc2ccc(F)c(F)c2o1 | 20
19 | O=C1NC2CCCCCC2N1c1nc2cccc(F)c2o1 (stereo not given) | 5
20 | O=C1NC2CCCCCC2N1c1nc2ccccc2o1 (stereo not given) | 8
21 | Oc1nc2ccccc2n1-c1nc2ccccc2o1 | 54
22 | Cc1ccc2oc(N3C(=O)NC4CCCCCC43)nc2c1 (stereo not given) | 15
23 | O=C1NC2CCCCCC2N1c1nc2ccc(F)c(F)c2o1 (stereo not given) | 3
24 | O=C1NC2CCCCCC2N1c1nc2cc(F)ccc2o1 (stereo not given) | 5
25 | COc1ccc2nc(-n3c(O)nc4ccccc43)oc2c1 | 610
26 | O=C1NC2CCCCCC2N1c1nc2c(F)cc(F)cc2o1 (stereo not given) | 65
27 | O=C1NC2CCCCC2N1c1nc2ncccc2o1 (stereo not given) | > 1000
28 | Oc1nc2cc(F)ccc2n1-c1nc2cccc(F)c2o1 | 14
29 | Oc1nc2ccccc2c2nc(-c3ccccc3)nn12 | 4
30 | Oc1nc2cccnc2n1-c1nc2ccccc2o1 | 723
31 | Oc1nc2ccccc2n1-c1nc2ncccc2o1 | 44
32 | Cn1c(=O)n(-c2nc3ccccc3o2)c2ccccc21 | > 10000
33 | Cc1ccc2nc(N3C(=O)NC4CCCCCC43)oc2c1 (stereo not given) | 158
34 | Oc1nc2ccccc2n1-c1nc2ccccc2s1 | > 10000
35 | Oc1nc2ccccc2n1-c1nc2cccc(F)c2o1 | 39
36 | COc1ccc2oc(-n3c(O)nc4ccccc43)nc2c1 | 91
37 | O=C1NC2CCCCCC2N1c1nc2cc(F)c(F)cc2o1 (stereo not given) | 87
38 | COc1ccc2oc(N3C(=O)NC4CCCCCC43)nc2c1 (stereo not given) | 25
39 | COc1ccc2nc(N3C(=O)NC4CCCCCC43)oc2c1 (stereo not given) | 254
40 | O=C1NC2CCCCCC2N1c1nc2cc(F)cc(F)c2o1 (stereo not given) | 7
